From patent US11541033B2, “Agent for preventing or treating Alzheimer's disease” (FUJIFILM Toyama Chemical Co., Ltd., priority 2017, dated 2023)

Tested on: mild to moderate AD patients
Experiment: Test Example 1: phase II placebo-controlled trial, ADAS-cog change from baseline
Type: in vivo, human
Text: Test Example 1 Multicenter Randomized Double-Blind Phase II Placebo-Controlled Trial for Assessing Effectiveness and Safety of Compound a in Mild to Moderate AD Patients
Patients were screened in a period from 42 days before treatment assignment to the assignment based on the following selection criteria. Patients matched (484 patients) were randomly divided into the following 3 groups and the trial was started.
• Patients who were probable AD and are 55 years old or older and 85 years old or younger at the time of obtaining consent of screening. • Patients with an MMSE score of 12 to 22 at the time of screening • Patients with a Modified Hachinski Ischemia Scale score of 4 or less • Patients who have been treated with a donepezil hydrochloride or rivastigmine transdermal system for at least 4 months before the baseline and with a stable dose thereof for 3 months before the baseline. • In the case of patients who have received memantine in addition to being treated with a donepezil hydrochloride or rivastigmine transdermal system, patients who have been treated with memantine for at least 4 months before the baseline and with a stable dose thereof for 3 months before the baseline. • Patients whose brain MRI or CT results match AD at the time of screening Organization of Groups: (1) High dose group: 224 mg of a test compound (160 mg in terms of Compound A) was orally administered once a day for 4 weeks and then 448 mg of a test compound (320 mg in terms of Compound A) was orally administered once a day for 48 weeks (158 patients) (2) Low dose group: 224 mg of a test compound (160 mg in terms of Compound A) was orally administered once a day for 52 weeks (166 patients) (3) Placebo group: placebo was orally administered once a day for 52 weeks (158 patients) Method of assessment: (1) ADAS-cog
The ADAS-cog score of the subject was evaluated at the baseline (before administration of investigational drug on the first day of administration) and after 52 weeks and the cognitive function was assessed based on the change from the baseline.
Changes in the ADAS-cog score and the ADCS-ADL score after 52 weeks from the baseline were compared between the high dose group and the placebo group, and between the low dose group and the placebo group based on the Mixed-effect Models for Repeated Measures (MMRM) with a significance level of 5%. For models, fixed effects included the treatment groups and time, while covariates included age, the baseline of ADAS-cog or ADCS-ADL, the baseline of MMSE and ApoE4 genotype (positive/negative). The interaction between time and the treatment groups and the interaction between the baseline of ADAS-cog and time were also included.

[1] = high dose group, more than 2.6 years from clinical diagnosis
[2] = high dose group, within 2.8 years from clinical diagnosis
[3] = high dose group, within 3 years from clinical diagnosis
[4] = high dose group, within 3.2 years from clinical diagnosis
[5] = high dose group, within 3.4 years from clinical diagnosis
[6] = high dose group, within 3.6 years from clinical diagnosis
[7] = high dose group, within 3.8 years from clinical diagnosis
[8] = high dose group, within 4.0 years from clinical diagnosis
[9] = high dose group, within 5.0 years from clinical diagnosis
[10] = high dose group, within 6.0 years from clinical diagnosis
[11] = low dose group (160 mg), more than 2.6 years from clinical diagnosis
[12] = low dose group (160 mg), total (all periods from clinical diagnosis)

## OC1CN(CCCOCCc2ccc3sccc3c2)C1 [Compound A, 1-(3-(2-(1-benzothiophen-5-yl)ethoxy)propyl)azetidin-3-ol]
Test Example 1, high dose group, patients within 2.6 years from clinical diagnosis of AD
  Changes in ADAS-cog from the baseline at week 52, Compound A high dose group versus placebo group (in words): statistically significant difference
Test Example 1, high dose group, periods 2.5 to 6 years from clinical diagnosis of AD
  Difference in ADAS-cog change between high dose group and placebo group, compared by periods from clinical diagnosis (in words): larger in patients whose period was shorter
Test Example 1, low dose group (160 mg), week 52
  Change in the ADAS-cog score, Compound A low dose group versus placebo group (in words): tended to be smaller than that in the placebo group
High dose group (160 mg 4 weeks then 320 mg 48 weeks in terms of Compound A, oral once a day), within 2.5 years from clinical diagnosis
  Change in ADAS-cog from baseline at week 52, least square means (95% confidence interval): 5.6
High dose group (160 mg 4 weeks then 320 mg 48 weeks, oral once a day), within 2.5 years from clinical diagnosis
  Change in ADAS-cog from baseline at week 52, difference from placebo group (95% confidence interval): −3.3
[1]
  Change in ADAS-cog from baseline at week 52, difference from placebo group (95% confidence interval): 1.8(−1.0, 4.6)
  Change in ADAS-cog from baseline at week 52, least square means (95% confidence interval): 8.4(6.3, 10.5)
[2]
  Change in ADAS-cog from baseline at week 52, difference from placebo group (95% confidence interval): −2.5
  Change in ADAS-cog from baseline at week 52, least square means (95% confidence interval): 6.2
[3]
  Change in ADAS-cog from baseline at week 52, difference from placebo group (95% confidence interval): −2.2
  Change in ADAS-cog from baseline at week 52, least square means (95% confidence interval): 6.1
[4]
  Change in ADAS-cog from baseline at week 52, difference from placebo group (95% confidence interval): −2.0
  Change in ADAS-cog from baseline at week 52, least square means (95% confidence interval): 6.4
[5]
  Change in ADAS-cog from baseline at week 52, difference from placebo group (95% confidence interval): −1.8
  Change in ADAS-cog from baseline at week 52, least square means (95% confidence interval): 6.4
[6]
  Change in ADAS-cog from baseline at week 52, difference from placebo group (95% confidence interval): −1.8
  Change in ADAS-cog from baseline at week 52, least square means (95% confidence interval): 6.7
[7]
  Change in ADAS-cog from baseline at week 52, difference from placebo group (95% confidence interval): −2.1
  Change in ADAS-cog from baseline at week 52, least square means (95% confidence interval): 6.5
[8]
  Change in ADAS-cog from baseline at week 52, difference from placebo group (95% confidence interval): −1.7
  Change in ADAS-cog from baseline at week 52, least square means (95% confidence interval): 6.6
[9]
  Change in ADAS-cog from baseline at week 52, difference from placebo group (95% confidence interval): −1.9
  Change in ADAS-cog from baseline at week 52, least square means (95% confidence interval): 6.5
[10]
  Change in ADAS-cog from baseline at week 52, difference from placebo group (95% confidence interval): −0.9
  Change in ADAS-cog from baseline at week 52, least square means (95% confidence interval): 7.2
Low dose group (160 mg in terms of Compound A, oral once a day, 52 weeks), within 2.6 years from clinical diagnosis
  Change in ADAS-cog from baseline at week 52, least square means (95% confidence interval): 8.1 (6.0, 10.2)
[11]
  Change in ADAS-cog from baseline at week 52, difference from placebo group (95% confidence interval): 0.1 (−2.5, 2.8)
  Change in ADAS-cog from baseline at week 52, least square means (95% confidence interval): 6.8 (4.8, 8.7)
[12]
  Change in ADAS-cog from baseline at week 52, difference from placebo group (95% confidence interval): −0.5 (−2.4, 1.4)
  Change in ADAS-cog from baseline at week 52, least square means (95% confidence interval): 7.4 (6.0, 8.9)
Low dose group (160 mg), within 2.6 years from clinical diagnosis
  Change in ADAS-cog from baseline at week 52, difference from placebo group (95% confidence interval): −0.9 (−3.6, 1.8)
